# Data published in US20090149432A1, “METHODS FOR ADMINISTERING CORTICOSTEROID FORMULATIONS” (priority 2007, published 2009).
# Read-outs that look alike come from different tables or passages of the source.
# Assays:
# [1] = test system: hypothalamus-pituitary-adrenal (HPA) axis; experiment: ACTH-induced plasma cortisol levels in children after six weeks of treatment; format: in vivo, human (children); details: doses of Tables 3 and 4
# Description: An important measure of systemic exposure to corticosteroids is the level of endogenous cortisols in the blood. Excess exogenous corticosteroids will suppress natural production of cortisols due to the suppression of the adrenal cortex. […] Both these changes are statistically insignificant.
# [2] = Plasma budesonide pharmacokinetics in asthmatic children, twice a day nebulization over six weeks; format: in vivo, human (asthmatic children); details: for AUC0-inf (geometric mean): nebulized; for AUC0-inf (geometric mean) / Cmax (geometric mean) / Cmax at 42 days / Cmax / half-life at 42 days / Tmax at 42 days / half-life / Tmax: asthmatic children; for Cmax at 42 days / Cmax / half-life at 42 days / Tmax at 42 days / half-life / Tmax / Tmax at 6 weeks: human, plasma, inhaled; for Cmax at 42 days / Cmax: read-out: Cmax (geometric mean); for half-life at 42 days / half-life: read-out: T1/2 (geometric mean); for Tmax at 42 days / Tmax: read-out: Tmax (geometric mean) (converted); for Tmax at 6 weeks: read-out: Tmax averaged over 6 weeks (converted)
# Description: The budesonide was administered twice a day by a nebulizer for six weeks (42 days). In one subset, budesonide was administered at a dose of 0.25 mg. In the other subset, budesonide was administered at a dose of 0.135 mg.
# Tmaxs averaged about 4.3 minutes (SD±0.63 minutes) for the two dosage strengths and time of treatment that ranged from zero to six weeks. […] The Cmaxs and AUCs (area under the curve) obtained for the two different dosage strengths were below levels that would induce side effects due to systemic exposure. […] Murphy et al.'s dosing regimen of 1.0 mg twice a day (bid) was the same as that for Pulmicort Respules when the pharmacokinetics of Pulmicort Respules was being assessed by Astrazeneca (Pharmacokinetics section of Pulmicort Respules label insert).
compound,measurement,setting,value
"CCCC1O[C@@H]2C[C@H]3[C@@H]4CCC5=CC(=O)C=C[C@]5(C)[C@H]4[C@@H](O)C[C@]3(C)[C@]2(C(=O)CO)O1 (some centres unmarked) [Budesonide, budesonide]",HPA axis suppression,[1],no evidence of hypothalamus-pituitary-adrenal (HPA) axis suppression
same,AUC0-inf (geometric mean),"[2]; 0.135 mg dose twice a day, Day 42","22,071 pg-min/mL"
same,AUC0-inf (geometric mean),"[2]; 0.135 mg dose twice a day, First Dose","10,238 pg-min/mL"
same,change of AUC0-inf,"[2]; 0.135 mg dose, by week six of dosing",more than doubled
same,change of Cmax,"[2]; 0.135 mg dose, initial dosing to week six",more than tripling
same,Cmax (geometric mean),"[2]; 0.135 mg dose, Day 42",0.6721 ng/mL
same,Cmax (geometric mean),"[2]; 0.135 mg dose, First Dose",0.2144 ng/mL
same,Cmax to AUC0-inf ratio,"[2]; 0.135 mg dose, standard deviation less than approximately 0.006 min^−1",approximately 0.02 min^−1
same,AUC0-inf (geometric mean),"[2]; 0.25 mg dose twice a day, Day 42","33,116 pg-min/mL"
same,AUC0-inf (geometric mean),"[2]; 0.25 mg dose twice a day, Day 42, listed as budesonide","about 33,116 pg-min/mL"
same,AUC0-inf (geometric mean),"[2]; 0.25 mg dose twice a day, First Dose","20,849 pg-min/mL"
same,AUC0-inf (geometric mean),"[2]; 0.25 mg dose twice a day, First Dose, listed as budesonide","about 20,849 pg-min/mL"
same,Cmax to AUC0-inf ratio,"[2]; 0.25 mg dose, standard deviation less than approximately 0.007 min^−1",approximately 0.025 min^−1
same,change of Cmax,"[2]; 0.25 mg, after 42 days (six weeks) of dosing",at least double
same,"increase of AUC0-inf, times its value at first dose","[2]; 0.25 mg, repeat dosing for six weeks",about 1.6 times
same,Cmax at 42 days,"[2]; 0.135 mg, Day 42",~0.672 ng/mL
same,Cmax,"[2]; 0.135 mg, First Dose",~0.214 ng/mL
same,Cmax at 42 days,"[2]; 0.25 mg, Day 42",0.746 ng/mL
same,Cmax,"[2]; 0.25 mg, First Dose",0.321 ng/mL
same,half-life at 42 days,"[2]; 0.135 mg dose, Day 42",71.3 min
same,Tmax at 42 days,"[2]; 0.135 mg dose, Day 42",4.4 min
same,half-life,"[2]; 0.135 mg dose, First Dose",42.1 min
same,Tmax,"[2]; 0.135 mg dose, First Dose",4.4 min
same,Tmax at 6 weeks,[2]; 0.135 mg dose,4.4 min
same,half-life at 42 days,"[2]; 0.25 mg dose, Day 42",75.7 min
same,Tmax at 42 days,"[2]; 0.25 mg dose, Day 42",5 min
same,half-life,"[2]; 0.25 mg dose, First Dose",155 min
same,Tmax,"[2]; 0.25 mg dose, First Dose",3.3 min
same,Tmax at 6 weeks,[2]; 0.25 mg dose,4.1 min
